# From patent publication US11214803B2, “Modulators of YAP1 expression” (Ionis Pharmaceuticals, Inc., priority 2019, dated 2022)
# Strand notation (5' to 3'): a small letter for the sugar, then the base; units joined by * are phosphorothioate-linked, units joined directly phosphodiester-linked; [ ] holds rarer units or linkages, { } end groups; capitals alone tell only the bases. k = constrained ethyl (cEt); [5mC] = 5-methylcytosine; d = 2'-deoxy (DNA)
# Test system: Yap1 mRNA
# Experiment: Antisense inhibition of human Yap1 in A-431 cells by cEt gapmers, single dose (Example 3, RTS36584)
# Type: cell-based
# In short: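 A-431 cells were treated by free uptake with 2,000 nM modified oligonucleotide (3-10-3 cEt gapmers, full phosphorothioate, 5-methylcytosines) for about 48 hours. Yap1 mRNA was quantified by real-time RT-PCR, normalized to RiboGreen total RNA, and expressed as % of untreated control; asterisked values mark oligonucleotides targeting the amplicon region.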
# [1] = Table 13, A-431 cells, 5,000 cells per well, free uptake, 2,000 nM modified oligonucleotide, approx. 48 hours, RTS36584, normalized to RIBOGREEN, Yap1 mRNA relative to untreated control cells
# [2] = Table 12, A-431 cells, 5,000 cells per well, free uptake, 2,000 nM modified oligonucleotide, approx. 48 hours, RTS36584, normalized to RIBOGREEN, Yap1 mRNA relative to untreated control cells
# [3] = Table 11, A-431 cells, 5,000 cells per well, free uptake, 2,000 nM oligonucleotide, approx. 48 hours, primer probe set RTS36584, Yap1 mRNA normalized to RIBOGREEN, percent of untreated control
# [4] = Table 26, Yap1 mRNA by 3-10-3 cEt gapmers targeting SEQ ID NO.: 1, and 2, percent of untreated control
# [5] = Table 35, Yap1 mRNA as percent of untreated control, 3-10-3 cEt gapmers targeting SEQ ID NO: 1 and 2, single dose
# [6] = Table 27, Yap1 mRNA by 3-10-3 cEt gapmers targeting SEQ ID NO.: 1, and 2, percent of untreated control
# [7] = Table 9, A-431 cells, 5,000 cells per well, free uptake, 2,000 nM, approximately 48 hours, RTS36584, normalized to RIBOGREEN, Yap1 mRNA relative to untreated control cells
# [8] = Table 34, Yap1 mRNA as percent of untreated control, 3-10-3 cEt gapmers targeting SEQ ID NO: 1 and 2, single dose
# [9] = Table 8, A-431 cells, 5,000 cells per well, free uptake, 2,000 nM, approximately 48 hours, RTS36584, normalized to RIBOGREEN, Yap1 mRNA relative to untreated control cells
# [10] = Table 28, Yap1 mRNA as percent of untreated control, 3-10-3 cEt gapmers targeting SEQ ID NO.: 1, and 2
# [11] = Table 10, A-431 cells, 5,000 cells per well, free uptake, 2,000 nM oligonucleotide, approx. 48 hours, primer probe set RTS36584, Yap1 mRNA normalized to RIBOGREEN, percent of untreated control
# [12] = Table 29, Yap1 mRNA as percent of untreated control, 3-10-3 cEt gapmers targeting SEQ ID NO.: 1, and 2
substance,measurement,setting,value
958690 (antisense kT*kG*kG*dA*d[5mC]*dT*d[5mC]*dT*dT*dG*dA*dT*d[5mC]*kA*k[5mC]*kA) [Compound 958690],YAP1 (% UTC),[1],26 % UTC
958569 (kA*kG*k[5mC]*d[5mC]*dT*dT*dA*dG*dA*dG*dT*d[5mC]*dA*kA*kT*kT; antisense) [Compound 958569],YAP1 (% UTC),[2],3 % UTC
958803 (antisense kG*kA*kT*dA*dA*dT*d[5mC]*dA*dT*d[5mC]*d[5mC]*dT*d[5mC]*kA*kG*k[5mC]) [Compound 958803],YAP1 (% UTC),[3],24 % UTC
1074892 (k[5mC]*kT*kG*dA*dA*dG*dT*dT*dT*dA*dG*d[5mC]*d[5mC]*kT*kG*kA; antisense) [compound 1074892],YAP1 (% UTC),[4],42 % UTC
1074741 (kA*kA*kG*dG*dA*d[5mC]*dT*d[5mC]*dT*dT*dA*dG*dG*kT*k[5mC]*kT; antisense) [compound 1074741],YAP1 (% UTC),[5],78 % UTC
1075725 (kA*kT*k[5mC]*d[5mC]*dT*dA*dT*d[5mC]*dT*dG*dT*d[5mC]*dA*kG*kT*kT; antisense) [compound 1075725],YAP1 (% UTC),[6],18 % UTC
958801 (antisense k[5mC]*kG*k[5mC]*dT*dA*dG*d[5mC]*dA*d[5mC]*dG*d[5mC]*dG*d[5mC]*kG*k[5mC]*kT) [Compound 958801],YAP1 (% UTC),[7],131 % UTC
958559 (kA*kA*kT*dT*d[5mC]*dA*d[5mC]*dA*dA*d[5mC]*d[5mC]*dA*dA*k[5mC]*kT*kA; antisense) [Compound 958559],YAP1 (% UTC),[2],17 % UTC
1075476 (kT*k[5mC]*kT*dT*dA*dT*d[5mC]*d[5mC]*dT*dA*d[5mC]*dA*dG*k[5mC]*kT*kT; antisense) [compound 1075476],YAP1 (% UTC),[8],75 % UTC
958659 (kG*kT*kT*dG*dT*dA*dT*dT*dA*d[5mC]*dT*d[5mC]*dT*k[5mC]*k[5mC]*kA; antisense) [Compound 958659],YAP1 (% UTC),[2],2 % UTC
1076341 (antisense kA*kT*kT*dA*dA*d[5mC]*dT*dA*d[5mC]*dA*dA*d[5mC]*dT*kG*kT*kG) [compound 1076341],YAP1 (% UTC),[5],18 % UTC
958350 (kT*k[5mC]*k[5mC]*dG*dA*dG*dT*d[5mC]*d[5mC]*d[5mC]*d[5mC]*dG*d[5mC]*kG*kG*kA; antisense) [Compound 958350],YAP1 (% UTC),[9],106 % UTC
958691 (antisense kT*k[5mC]*kA*dG*dT*dT*dG*dG*d[5mC]*dA*dA*d[5mC]*dA*kG*kT*k[5mC]) [Compound 958691],YAP1 (% UTC),[7],20 % UTC
1075758 (kG*kT*kA*dA*dT*dT*dT*dA*dA*dT*dA*dG*dA*k[5mC]*kT*kA; antisense) [compound 1075758],YAP1 (% UTC),[10],73 % UTC
958597 (k[5mC]*k[5mC]*k[5mC]*dA*dA*dT*dA*d[5mC]*dA*dA*d[5mC]*d[5mC]*dA*kA*kG*kA; antisense) [Compound 958597],YAP1 (% UTC),[11],6 % UTC
1074836 (kA*kA*k[5mC]*dA*dA*d[5mC]*dA*dT*dG*d[5mC]*dT*dT*dG*k[5mC]*kG*kA; antisense) [compound 1074836],YAP1 (% UTC),[8],27 % UTC
958360 (antisense kT*k[5mC]*kG*dA*dA*d[5mC]*dA*dT*dG*d[5mC]*dT*dG*dT*kG*kG*kA) [Compound 958360],YAP1 (% UTC),[9],12 % UTC
958731 (antisense kG*k[5mC]*kT*d[5mC]*dT*dG*dT*d[5mC]*dA*dG*dT*dT*dA*kT*k[5mC]*k[5mC]) [Compound 958731],YAP1 (% UTC),[7],7 % UTC
1076044 (kA*kT*k[5mC]*dA*dA*dA*dA*dA*dG*dG*d[5mC]*dT*dA*kT*kT*kG; antisense) [compound 1076044],YAP1 (% UTC),[4],73 % UTC
1075221 (k[5mC]*kA*kT*dT*dA*dT*d[5mC]*d[5mC]*dG*dG*dG*dA*dG*kA*kG*k[5mC]; antisense) [compound 1075221],YAP1 (% UTC),[5],10 % UTC
1076495 (kG*kA*kT*dT*dA*dG*dT*dG*dA*dA*dA*dA*dT*kT*k[5mC]*k[5mC]; antisense) [compound 1076495],YAP1 (% UTC),[12],30 % UTC
958718 (antisense kG*kA*kA*d[5mC]*dA*d[5mC]*dT*dA*dT*dA*dG*d[5mC]*dT*kT*kG*kG) [Compound 958718],YAP1 (% UTC),[3],4 % UTC
1076180 (kA*kT*kA*dA*dT*dT*dA*dG*d[5mC]*d[5mC]*dA*dA*d[5mC]*k[5mC]*kA*k[5mC]; antisense) [compound 1076180],YAP1 (% UTC),[8],42 % UTC
1076014 (kA*kA*kT*d[5mC]*dA*dA*d[5mC]*d[5mC]*dT*dA*dT*dG*dA*kG*kG*kT; antisense) [compound 1076014],YAP1 (% UTC),[10],98 % UTC
1075125 (k[5mC]*kT*kT*dA*dA*dG*dG*dT*dA*d[5mC]*dA*dA*dG*kG*k[5mC]*kA; antisense) [compound 1075125],YAP1 (% UTC),[5],84 % UTC
958475 (antisense k[5mC]*k[5mC]*kG*dG*dT*dG*d[5mC]*dA*dT*dG*dT*dG*dT*k[5mC]*kT*k[5mC]) [Compound 958475],YAP1 (% UTC),[1],37 % UTC
958542 (kT*kA*kT*dA*dG*dT*dA*dT*dT*d[5mC]*dT*dA*dT*k[5mC]*k[5mC]*kA; antisense) [Compound 958542],YAP1 (% UTC),[11],4 % UTC
1076373 (antisense kA*kA*k[5mC]*dG*dG*dA*dT*dA*dT*dA*d[5mC]*dA*dA*kT*kA*kA) [compound 1076373],YAP1 (% UTC),[5],10 % UTC
958782 (antisense kA*kT*kG*dG*dT*d[5mC]*dT*d[5mC]*d[5mC]*d[5mC]*dA*dG*dT*k[5mC]*kA*k[5mC]) [Compound 958782],YAP1 (% UTC),[11],20 % UTC
958552 (kT*kA*kT*dT*dA*d[5mC]*dT*d[5mC]*d[5mC]*dT*dG*dT*dA*kG*kA*k[5mC]; antisense) [Compound 958552],YAP1 (% UTC),[11],16 % UTC
1075180 (kT*kA*kT*dT*dA*d[5mC]*dT*dA*d[5mC]*dA*dA*d[5mC]*d[5mC]*kA*kT*kA; antisense) [compound 1075180],YAP1 (% UTC),[4],56 % UTC
958714 (antisense kG*kA*kG*d[5mC]*dA*d[5mC]*dT*dG*d[5mC]*dG*d[5mC]*d[5mC]*d[5mC]*kT*kG*kG) [Compound 958714],YAP1 (% UTC),[2],82 % UTC
958528 (kA*kG*kT*d[5mC]*dT*dT*dG*dT*dA*dA*dG*dT*dA*kA*kG*kA; antisense) [Compound 958528],YAP1 (% UTC),[3],18 % UTC
958779 (antisense kT*k[5mC]*kG*dA*dA*dT*dA*dT*dA*dG*dA*dG*dG*k[5mC]*k[5mC]*kT) [Compound 958779],YAP1 (% UTC),[2],80 % UTC
1074125 (kG*k[5mC]*kG*dG*d[5mC]*dT*dG*d[5mC]*dG*d[5mC]*d[5mC]*dT*d[5mC]*kG*kG*kG; antisense) [compound 1074125],YAP1 (% UTC),[6],94 % UTC
958662 (kG*kA*kA*d[5mC]*dA*dG*dA*dT*dA*dG*dG*dA*d[5mC]*kT*kA*k[5mC]; antisense) [Compound 958662],YAP1 (% UTC),[11],51 % UTC
1076205 (kT*kA*kG*dT*dA*dT*dA*dA*dT*dT*d[5mC]*dA*dT*kG*kA*k[5mC]; antisense) [compound 1076205],YAP1 (% UTC),[6],51 % UTC
958811 (k[5mC]*kA*k[5mC]*dT*dG*dA*dG*dG*d[5mC]*dA*d[5mC]*dG*dG*k[5mC]*k[5mC]*k[5mC]; antisense) [Compound 958811],YAP1 (% UTC),[7],92 % UTC
1075151 (kT*kT*kT*dA*dA*dA*dA*dG*dT*dA*d[5mC]*d[5mC]*dA*kG*k[5mC]*kG; antisense) [compound 1075151],YAP1 (% UTC),[12],60 % UTC
958683 (kT*kA*kT*dT*dG*dT*dG*d[5mC]*dT*dG*d[5mC]*dA*dT*k[5mC]*kT*k[5mC]; antisense) [Compound 958683],YAP1 (% UTC),[3],16 % UTC
958588 (kG*kT*kG*dT*dA*d[5mC]*dT*dT*dA*dG*dG*dT*dG*kA*k[5mC]*kT; antisense) [Compound 958588],YAP1 (% UTC),[3],10 % UTC
1075821 (k[5mC]*kT*kT*dA*dA*d[5mC]*dT*dT*d[5mC]*d[5mC]*d[5mC]*dA*d[5mC]*kT*k[5mC]*kG; antisense) [compound 1075821],YAP1 (% UTC),[6],22 % UTC
958778 (antisense kG*k[5mC]*kT*dA*d[5mC]*d[5mC]*dT*dG*dG*dA*dG*d[5mC]*dG*kA*kA*kG) [Compound 958778],YAP1 (% UTC),[3],75 % UTC
